Results: the NIST ThermoML archive (doi:10.1021/je200093f)
Several values for one entry are separate records, joined by “and”; a condition that tells them apart may be missing. Equal values may be shown once.

What was measured:
[1] = xn = mol fraction of the nth substance listed; details: 298.15 K, 101 kPa, Liquid, Vibrating tube method
[2] = excess molar enthalpy (molar enthalpy of mixing); xn = mol fraction of the nth substance listed; details: 298.15 K, 101 kPa, Liquid, Calvet calorimetry
[3] = 101.33 kPa, Liquid, Vibrating tube method

Cc1ccncc1 [4-methylpyridine] + O
Details | excess molar enthalpy, [2] | mass density, [1]
x1 = 0.000919 | -0.00217 kcal/mol and -0.00216 kcal/mol | 997.023 kg/m3 and 997.024 kg/m3
x1 = 0.001837 | -0.00432 kcal/mol and -0.00429 kcal/mol | 997.005 kg/m3
x1 = 0.002753 | -0.0064 kcal/mol | 996.988 kg/m3
x1 = 0.002754 | -0.0064 kcal/mol | 996.988 kg/m3
x1 = 0.003667 | -0.00843 kcal/mol | 996.972 kg/m3
x1 = 0.003668 | -0.00844 kcal/mol | 996.971 kg/m3
x1 = 0.00458 | -0.0105 kcal/mol | 996.955 kg/m3 and 996.956 kg/m3
x1 = 0.005492 | -0.0124 kcal/mol | 996.939 kg/m3

CN1CCOCC1 [N-methylmorpholine]
Details | mass density [kg/m3]
[3], 298.15 K | 914.15

CN1CCOCC1 [N-methylmorpholine] + CO
Details | excess molar enthalpy, [2] | mass density, [1]
x1 = 0.001834 | – | 787.377 kg/m3 and 787.359 kg/m3
x1 = 0.003662 | -0.00519 kcal/mol | 788.239 kg/m3
x1 = 0.003663 | -0.0052 kcal/mol | 788.267 kg/m3
x1 = 0.005484 | -0.00777 kcal/mol and -0.00772 kcal/mol | 789.159 kg/m3 and 789.119 kg/m3
x1 = 0.007298 | -0.0103 kcal/mol | 790.004 kg/m3
x1 = 0.007299 | -0.0103 kcal/mol | 790.044 kg/m3
x1 = 0.009104 | -0.0128 kcal/mol | 790.862 kg/m3
x1 = 0.009108 | -0.0128 kcal/mol | 790.908 kg/m3
x1 = 0.0109 | -0.0152 kcal/mol | 791.711 kg/m3
x1 = 0.01091 | -0.0152 kcal/mol | 791.753 kg/m3

CN1CCOCC1 [N-methylmorpholine] + O
Details | excess molar enthalpy, [2] [kcal/mol] | mass density, [1] [kg/m3]
x1 = 0.000812 | -0.00565 | 997.058
x1 = 0.000813 | -0.00565 | 997.058
x1 = 0.001623 | -0.0113 | 997.074
x1 = 0.001624 | -0.0113 | 997.074
x1 = 0.002433 | -0.0169 | 997.095
x1 = 0.002434 | -0.0168 | 997.094
x1 = 0.003242 | -0.0224 | 997.121
x1 = 0.004048 | -0.0279 | 997.151
x1 = 0.00405 | -0.0279 | 997.153
x1 = 0.004854 | -0.0335 | 997.187
x1 = 0.004858 | -0.0334 | 997.188

CN1CCCCC1 [N-methylpiperidine]
[3]
Details | mass density [kg/m3]
288.15 K | 821.53
293.15 K | 817.22
298.15 K | 812.62
303.15 K | 808.16
308.15 K | 803.61

CN1CCCCC1 [N-methylpiperidine] + CO
Details | excess molar enthalpy, [2] | mass density, [1] [kg/m3]
x1 = 0.001664 | -0.00412 kcal/mol and -0.00411 kcal/mol | 786.815
x1 = 0.003322 | -0.00819 kcal/mol | 787.153
x1 = 0.003323 | -0.00814 kcal/mol | 787.15
x1 = 0.004975 | -0.0122 kcal/mol | 787.488
x1 = 0.004976 | -0.0122 kcal/mol | 787.486
x1 = 0.006622 | -0.0162 kcal/mol | 787.816
x1 = 0.006624 | -0.0161 kcal/mol | 787.816
x1 = 0.008264 | -0.0201 kcal/mol | 788.141
x1 = 0.008266 | -0.0201 kcal/mol | 788.139
x1 = 0.0099 | -0.024 kcal/mol | 788.458
x1 = 0.009904 | -0.0239 kcal/mol | 788.454

CN1CCCCC1 [N-methylpiperidine] + O
Details | excess molar enthalpy, [2] [kcal/mol] | mass density, [1] [kg/m3]
x1 = 0.000735 | -0.00509 | 996.66
x1 = 0.000736 | -0.00513 | 996.651
x1 = 0.000737 | -0.00512 | 996.658
x1 = 0.00147 | -0.0102 | 996.261
x1 = 0.001471 | -0.0103 | 996.253
x1 = 0.001473 | -0.0102 | 996.26
x1 = 0.002202 | -0.0154 | 995.866
x1 = 0.002206 | -0.0155 | 995.858
x1 = 0.002208 | -0.0154 | 995.862
x1 = 0.002934 | -0.0206 | 995.483
x1 = 0.002939 | -0.0206 | 995.482
x1 = 0.002942 | -0.0206 | 995.47
x1 = 0.003666 | -0.0258 | 995.109
x1 = 0.003671 | -0.0258 | 995.097
x1 = 0.003675 | -0.0259 | 995.081
x1 = 0.004398 | -0.0308 | 994.752
x1 = 0.004404 | -0.0309 | 994.733
x1 = 0.004409 | -0.031 | 994.716
